In PubChem BioAssay AID2060906 (Molecular Pharmacology Branch, DTP, NCI, 2025):
Values belong to the compound of their own block, whether it stands above or below them.

Test system: 485176-168-R4-J1-PDC complex spheroid growth
Test: Anticancer human tumor 485176-168-R4-J1-PDC patient-derived pancreatic adenocarcinoma cell line growth inhibition [RAS]
Conditions: for IC50: curve of first compound; for viability, T/C: stronger effect = lower value
How it was run: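 Agents were tested in combination matrices in half-log decrements from a top concentration at or near clinical Cmax (10 microM if undetermined). Targets were multi-cell spheroids of tumour lines plus HUVEC and MSC stromal cells.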

[1] = second compound 0.0316 µM, first compound 0.0316 µM
[2] = second compound 0.0316 µM, first compound 0.1 µM
[3] = second compound 0.0316 µM, first compound 0.316 µM
[4] = second compound 0.0316 µM, first compound 1 µM
[5] = second compound 0.0316 µM, first compound 3.16 µM
[6] = second compound 0.0316 µM, first compound 10 µM
[7] = second compound 0.1 µM, first compound 0.0316 µM
[8] = second compound 0.1 µM, first compound 0.1 µM
[9] = second compound 0.1 µM, first compound 0.316 µM
[10] = second compound 0.1 µM, first compound 1 µM
[11] = second compound 0.1 µM, first compound 3.16 µM
[12] = second compound 0.1 µM, first compound 10 µM
[13] = second compound 0.316 µM, first compound 0.0316 µM
[14] = second compound 0.316 µM, first compound 0.1 µM
[15] = second compound 0.316 µM, first compound 0.316 µM
[16] = second compound 0.316 µM, first compound 1 µM
[17] = second compound 0.316 µM, first compound 3.16 µM
[18] = second compound 0.316 µM, first compound 10 µM
[19] = second compound 1 µM, first compound 0.0316 µM
[20] = second compound 1 µM, first compound 0.1 µM
[21] = second compound 1 µM, first compound 0.316 µM
[22] = second compound 1 µM, first compound 1 µM
[23] = second compound 1 µM, first compound 3.16 µM
[24] = second compound 1 µM, first compound 10 µM
[25] = second compound 3.16 µM, first compound 0.0316 µM
[26] = second compound 3.16 µM, first compound 0.1 µM
[27] = second compound 3.16 µM, first compound 0.316 µM
[28] = second compound 3.16 µM, first compound 1 µM
[29] = second compound 3.16 µM, first compound 3.16 µM
[30] = second compound 3.16 µM, first compound 10 µM
[31] = second compound 10 µM, first compound 0.0316 µM
[32] = second compound 10 µM, first compound 0.1 µM
[33] = second compound 10 µM, first compound 0.316 µM
[34] = second compound 10 µM, first compound 1 µM
[35] = second compound 10 µM, first compound 3.16 µM
[36] = second compound 10 µM, first compound 10 µM
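Further: spheroids exposed to compounds for seven days before readout.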
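Wherever viability, T/C is given: luminescence viability expressed relative to DMSO vehicle wells set as 100%.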

- IC50 (second compound 0.0316 µM): < 31.6 nM
- IC50 (second compound 0.1 µM): < 31.6 nM
- IC50 (second compound 0.316 µM): < 31.6 nM
- IC50 (second compound 1 µM): < 31.6 nM
- IC50 (second compound 3.16 µM): < 31.6 nM
- IC50 (second compound 10 µM): < 31.6 nM
SMILES: CC(=O)OC12COC1CC(O)C1(C)C(=O)C(O)C3=C(C)C(OC(=O)C(O)C(NC(=O)OC(C)(C)C)c4ccccc4)CC(O)(C(OC(=O)c4ccccc4)C21)C3(C)C (stereo not drawn) + C#Cc1c(F)ccc2cc(O)cc(-c3ncc4c(N5CC6CCC(C5)N6)nc(OCC56CCCN5CC(F)C6)nc4c3F)c12
- viability, T/C [1]: 18.5%
- viability, T/C [2]: 15.3%
- viability, T/C [3]: 14.6%
- viability, T/C [4]: 13.5%
- viability, T/C [5]: 18.5%
- viability, T/C [6]: 21.8%
- viability, T/C [7]: 19.1%
- viability, T/C [8]: 14.5%
- viability, T/C [9]: 13.7%
- viability, T/C [10]: 14.9%
- viability, T/C [11]: 19.8%
- viability, T/C [12]: 21.2%
- viability, T/C [13]: 15.1%
- viability, T/C [14]: 12.4%
- viability, T/C [15]: 13.4%
- viability, T/C [16]: 11.6%
- viability, T/C [17]: 16.6%
- viability, T/C [18]: 19.4%
- viability, T/C [19]: 17%
- viability, T/C [20]: 15.8%
- viability, T/C [21]: 12.8%
- viability, T/C [22]: 11.8%
- viability, T/C [23]: 19.2%
- viability, T/C [24]: 20.6%
- viability, T/C [25]: 20.6%
- viability, T/C [26]: 16.5%
- viability, T/C [27]: 15.2%
- viability, T/C [28]: 13.8%
- viability, T/C [29]: 16.5%
- viability, T/C [30]: 20.6%
- viability, T/C [31]: 16.5%
- viability, T/C [32]: 12.2%
- viability, T/C [33]: 13.3%
- viability, T/C [34]: 11.7%
- viability, T/C [35]: 16%
- viability, T/C [36]: 19%

- IC50 (second compound 0.0316 µM): 19.3 nM
- IC50 (second compound 0.1 µM): 13.4 nM
- IC50 (second compound 0.316 µM): 16.4 nM
- IC50 (second compound 1 µM): 17.8 nM
- IC50 (second compound 3.16 µM): 22.1 nM
- IC50 (second compound 10 µM): 27.2 nM
SMILES: CCc1c2c(nc3ccc(O)cc13)-c1cc3c(c(=O)n1C2)COC(=O)[C@]3(O)CC + C#Cc1c(F)ccc2cc(O)cc(-c3ncc4c(N5CC6CCC(C5)N6)nc(OCC56CCCN5CC(F)C6)nc4c3F)c12
- viability, T/C (second compound 0.0316 µM, first compound 0.000949 µM): 93.9%
- viability, T/C (second compound 0.0316 µM, first compound 0.003 µM): 82.8%
- viability, T/C (second compound 0.0316 µM, first compound 0.00949 µM): 71.2%
- viability, T/C (second compound 0.0316 µM, first compound 0.03 µM): 36.8%
- viability, T/C (second compound 0.0316 µM, first compound 0.0949 µM): 16.7%
- viability, T/C (second compound 0.0316 µM, first compound 0.3 µM): 7.74%
- viability, T/C (second compound 0.1 µM, first compound 0.000949 µM): 102%
- viability, T/C (second compound 0.1 µM, first compound 0.003 µM): 96.7%
- viability, T/C (second compound 0.1 µM, first compound 0.00949 µM): 52.9%
- viability, T/C (second compound 0.1 µM, first compound 0.03 µM): 32.2%
- viability, T/C (second compound 0.1 µM, first compound 0.0949 µM): 18.3%
- viability, T/C (second compound 0.1 µM, first compound 0.3 µM): 6.56%
- viability, T/C (second compound 0.316 µM, first compound 0.000949 µM): 112%
- viability, T/C (second compound 0.316 µM, first compound 0.003 µM): 107%
- viability, T/C (second compound 0.316 µM, first compound 0.00949 µM): 60.7%
- viability, T/C (second compound 0.316 µM, first compound 0.03 µM): 35.2%
- viability, T/C (second compound 0.316 µM, first compound 0.0949 µM): 16%
- viability, T/C (second compound 0.316 µM, first compound 0.3 µM): 6.47%
- viability, T/C (second compound 1 µM, first compound 0.000949 µM): 102%
- viability, T/C (second compound 1 µM, first compound 0.003 µM): 94.4%
- viability, T/C (second compound 1 µM, first compound 0.00949 µM): 63%
- viability, T/C (second compound 1 µM, first compound 0.03 µM): 38.6%
- viability, T/C (second compound 1 µM, first compound 0.0949 µM): 15.9%
- viability, T/C (second compound 1 µM, first compound 0.3 µM): 7.94%
- viability, T/C (second compound 3.16 µM, first compound 0.000949 µM): 94.7%
- viability, T/C (second compound 3.16 µM, first compound 0.003 µM): 101%
- viability, T/C (second compound 3.16 µM, first compound 0.00949 µM): 69.3%
- viability, T/C (second compound 3.16 µM, first compound 0.03 µM): 42.9%
- viability, T/C (second compound 3.16 µM, first compound 0.0949 µM): 19.1%
- viability, T/C (second compound 3.16 µM, first compound 0.3 µM): 9.06%
- viability, T/C (second compound 10 µM, first compound 0.000949 µM): 127%
- viability, T/C (second compound 10 µM, first compound 0.003 µM): 90.6%
- viability, T/C (second compound 10 µM, first compound 0.00949 µM): 77.9%
- viability, T/C (second compound 10 µM, first compound 0.03 µM): 46.6%
- viability, T/C (second compound 10 µM, first compound 0.0949 µM): 17.7%
- viability, T/C (second compound 10 µM, first compound 0.3 µM): 6.96%

- IC50 (second compound 0.0316 µM): > 10000 nM
- IC50 (second compound 0.1 µM): > 10000 nM
- IC50 (second compound 0.316 µM): > 10000 nM
- IC50 (second compound 1 µM): > 10000 nM
- IC50 (second compound 3.16 µM): > 10000 nM
- IC50 (second compound 10 µM): > 10000 nM
SMILES: NC1c2ccccc2OC12CCN(c1cnc3c(N4CCCc5ncccc54)n[nH]c3n1)CC2 (stereo not drawn) + C#Cc1c(F)ccc2cc(O)cc(-c3ncc4c(N5CC6CCC(C5)N6)nc(OCC56CCCN5CC(F)C6)nc4c3F)c12
- viability, T/C [1]: 77%
- viability, T/C [2]: 79.1%
- viability, T/C [3]: 78.5%
- viability, T/C [4]: 77.6%
- viability, T/C [5]: 75.3%
- viability, T/C [6]: 62.4%
- viability, T/C [7]: 83%
- viability, T/C [8]: 82.9%
- viability, T/C [9]: 78.7%
- viability, T/C [10]: 76.2%
- viability, T/C [11]: 90.1%
- viability, T/C [12]: 62.5%
- viability, T/C [13]: 78.4%
- viability, T/C [14]: 82.8%
- viability, T/C [15]: 73.9%
- viability, T/C [16]: 72.6%
- viability, T/C [17]: 79.3%
- viability, T/C [18]: 58.8%
- viability, T/C [19]: 78.6%
- viability, T/C [20]: 74%
- viability, T/C [21]: 85.5%
- viability, T/C [22]: 80.6%
- viability, T/C [23]: 87.8%
- viability, T/C [24]: 70%
- viability, T/C [25]: 79.8%
- viability, T/C [26]: 68.9%
- viability, T/C [27]: 64.5%
- viability, T/C [28]: 82.8%
- viability, T/C [29]: 80.5%
- viability, T/C [30]: 61.3%
- viability, T/C [31]: 91.4%
- viability, T/C [32]: 79.2%
- viability, T/C [33]: 68.8%
- viability, T/C [34]: 67.2%
- viability, T/C [35]: 91.1%
- viability, T/C [36]: 64.5%

- IC50 (second compound 0.0316 µM): 17.3 nM
- IC50 (second compound 0.1 µM): 16.4 nM
- IC50 (second compound 0.316 µM): 14.2 nM
- IC50 (second compound 1 µM): 18.2 nM
- IC50 (second compound 3.16 µM): 15.3 nM
- IC50 (second compound 10 µM): 15.3 nM
SMILES: Nc1ccn(C2OC(CO)C(O)C2(F)F)c(=O)n1 (stereo not drawn) + C#Cc1c(F)ccc2cc(O)cc(-c3ncc4c(N5CC6CCC(C5)N6)nc(OCC56CCCN5CC(F)C6)nc4c3F)c12
- viability, T/C (second compound 0.0316 µM, first compound 0.00316 µM): 84%
- viability, T/C (second compound 0.0316 µM, first compound 0.01 µM): 80.9%
- viability, T/C [1]: 15.7%
- viability, T/C [2]: 8.52%
- viability, T/C [3]: 8.6%
- viability, T/C [4]: 8.88%
- viability, T/C (second compound 0.1 µM, first compound 0.00316 µM): 87.7%
- viability, T/C (second compound 0.1 µM, first compound 0.01 µM): 76.1%
- viability, T/C [7]: 15.6%
- viability, T/C [8]: 8.78%
- viability, T/C [9]: 9.24%
- viability, T/C [10]: 9.6%
- viability, T/C (second compound 0.316 µM, first compound 0.00316 µM): 80.7%
- viability, T/C (second compound 0.316 µM, first compound 0.01 µM): 66.1%
- viability, T/C [13]: 13.2%
- viability, T/C [14]: 7.37%
- viability, T/C [15]: 11.3%
- viability, T/C [16]: 10.4%
- viability, T/C (second compound 1 µM, first compound 0.00316 µM): 94.8%
- viability, T/C (second compound 1 µM, first compound 0.01 µM): 84.9%
- viability, T/C [19]: 17.8%
- viability, T/C [20]: 7.27%
- viability, T/C [21]: 10.2%
- viability, T/C [22]: 9.53%
- viability, T/C (second compound 3.16 µM, first compound 0.00316 µM): 82.5%
- viability, T/C (second compound 3.16 µM, first compound 0.01 µM): 69.7%
- viability, T/C [25]: 16.5%
- viability, T/C [26]: 10.8%
- viability, T/C [27]: 10.5%
- viability, T/C [28]: 10.3%
- viability, T/C (second compound 10 µM, first compound 0.00316 µM): 92.4%
- viability, T/C (second compound 10 µM, first compound 0.01 µM): 71.2%
- viability, T/C [31]: 14.2%
- viability, T/C [32]: 11.5%
- viability, T/C [33]: 10.9%
- viability, T/C [34]: 9.84%
